Laboratory results from patent US20040048899A1, “Tartrate salts of thiazollidnedione derivative” (priority 2000, published 2004).
Where two headings read alike, the source gives them in different places.

Details: 1 month, glass bottle, product of Example 4
Method: The solid state stability of the drug substance was determined by storing approximately 1.0 g of the material in a glass bottle at i) 40° C./75% Relative Humidity (RH), open exposure, for 1 month and b) at 50° C., closed, for 1 month. The material was assayed by HPLC for final content and degradation products in both cases.

[1] = 40° C./75% Relative Humidity, open exposure

In the case of CN(CCOc1ccc(CC2SC(=O)NC2=O)cc1)c1ccccn1.O=C(O)C(O)C(O)C(=O)O (stereo not drawn) [D(−) Tartrate, 5-[4-[2-(N-methyl-N-(2-pyridyl)amino)ethoxy]benzyl]thiazolidine-2,4-dione, D(−) tartrate salt], the “Solid state stability: HPLC assay” value [1] is reported as 96 % initial, the “Solid state stability: degradation observed” value [1] is reported as “No significant degradation observed” and the “Solid state stability: HPLC assay” value (50° C., closed) is reported as 98 % initial. The “Solid state stability: degradation observed” value (50° C., closed) was “No significant degradation observed”.
